Holding throughout (type): cell-based
In experiment [1] the test system is 4306 cells. Put plainly: MTT proliferation assay, 4306 cells. The settings on record: Mus musculus. The method, then: Cells were plated in 96-well plates and treated the day after. Seven days after plating the cell survival was measured using 3-(4,5-dimethylthiazol-2-yl)-2,5-diphenyltetrazolium bromide substrate and measuring the absorbance at 550 nm. […] The results shown are the mean values from three independent experiments. (Error bars represent SEM, ***p<0.001). […] Significant differences (P<0.05) in FIG. 4C were determined by one-way factorial ANOVA.
(Connolly, 2003). The 4306 cells were provided by Dr. Daniela Dinulescu, Brigham and Women's (Boston) (30). Cells were plated at a density of 1000 cells/well in 96-well plates and treated 24 h later. The cell proliferation was measured after 7 days by registering the absorbance at 550 nm. Paclitaxel was manufactured by Ivax Pharmaceuticals and obtained from the MGH pharmacy.
(Formazan colour is commonly taken as a measure of viable cells.)

For experiment [2], the system named is cancer cells. Put plainly: Apoptosis of cancer cells. The settings on record: 2-5 μM as compared with 10-20 μM. The text has this:
Paclitaxel has been used in the treatment of a wide range of tumors, including ovarian, breast, and prostate. It exerts its effect by targeting the microtubules and arresting the cells in G2/M phase, leading to the induction of apoptosis (Bhalla et al, 2003, Oncogene 22:9075-908645). […] Additionally, paclitaxel is thought to exert a biphasic apoptosis effect through a p53-dependent pathway that induces apoptosis at lower concentrations, whereas at higher concentrations, it inhibits p53 expression in an […] carcinoma cell line (Tan et al., 2002; Int J Cancer 97:168-172).

Experiment [3] has as its target T1, rat MISRII (Rattus norvegicus, UniProt Q62893).
T1 construct: expressed in transfected cells; host or cells: COS7
T1 sequence (Q62893 18-557): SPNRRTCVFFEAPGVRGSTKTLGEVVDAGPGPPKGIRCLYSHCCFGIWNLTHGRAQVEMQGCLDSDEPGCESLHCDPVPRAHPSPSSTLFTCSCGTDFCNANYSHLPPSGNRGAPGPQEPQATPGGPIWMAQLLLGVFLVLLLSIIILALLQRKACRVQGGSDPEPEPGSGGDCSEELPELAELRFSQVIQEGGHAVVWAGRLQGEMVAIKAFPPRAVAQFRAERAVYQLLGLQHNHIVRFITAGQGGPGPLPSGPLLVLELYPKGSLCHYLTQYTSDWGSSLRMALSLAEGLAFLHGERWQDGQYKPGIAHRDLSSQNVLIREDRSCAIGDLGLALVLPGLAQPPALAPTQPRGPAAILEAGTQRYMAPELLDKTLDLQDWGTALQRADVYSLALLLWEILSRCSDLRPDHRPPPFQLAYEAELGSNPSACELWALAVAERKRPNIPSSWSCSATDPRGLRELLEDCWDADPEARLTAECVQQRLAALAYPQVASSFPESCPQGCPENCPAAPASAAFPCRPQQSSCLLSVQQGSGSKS
Description: BRE-luciferase reporter assay in COS7 cells transfected with MISRII. To be noted: for BRE-luciferase induction, MIS plus SP600125: COS7, 24 h. An excerpt: COS7 cells were transiently transfected with MISRH, BRE-Luciferase and phRL-CMV. […] Control cells were transfected with a control plasmid (EGFP-N1 plasmid) instead of the receptor plasmid to keep the total DNA transfected constant. The results shown are the fold-induction over vehicle treated cells and normalized to phRL-CMV expression to correct for variations in cell number and transfection efficiency. […] The results represent the mean values from three independent experiments performed in triplicates (Error bars represent SEM, *p<0.05, **p<0.001).
To identify molecules that interact with the MISRII, we developed a reporter assay where binding to MISRII activates a firefly luciferase reporter driven by the BMP-responsive element (BRE) promoter kindly provided by Dr. Peter ten Dijke (The Netherlands Cancer Institute, The Netherlands) The BMP promoter region on mouse M. mus is located on chromosome 2 (Chr2) and corresponds to RefSeq No: NT—039207.6 93504644-93506272 (SEQ ID NO:1). The BRE-luciferase reporter (Korchynskyi and ten Dijke, 2002, Logeart-Avramoglou, 2006) has multiple optimized BMP response elements (3 SBE, 7 GC, and 4 CAGC) driving the expression of the firefly luciferase. This reporter construct together with a control Renilla luciferase reporter phRL-CMV (Promega, Madison Wis.) and a rat MISRII cDNA expression construct (Teixeira, 1996) were transiently transfected into COST cells and plated in 384 well plates. Primary screens were performed at the Harvard Institute of Chemistry and Cell Biology screening facility. Compounds from chosen libraries were added at a volume of 100 nl at 5 mg/ml concentration in DMSO into 30 μl cell media and cultured for 24 h at 37° C., after which the luciferase activity was measured with reagents from Promega according to the manufacturer's instructions. A hit was identified as causing a fold induction over the plate median and each compound was tested in duplicate in separate plates. MIS was used to control for intra- and inter-assay variability.
COS7 cells were plated at a density of 5000 cells/well in 96-well plates for secondary screens. The day after plating cells were transfected with rat MISRII receptor or EGFP-N1 (Clontech, Mountain View Calif.) together with BRE firefly luciferase reporter construct and phRL-CMV using TransIT-LT1 transfection reagent (Mirus Bio Corporation, Madison Wis.). […] Results were obtained using the Dual Luciferase reporter assay according to the manufacturer's instructions (Promega). Plates were read in a Wallac Victor2 luminometer (PerkinElmer, Wellesley Mass.).

Experiment [4] deals with T2, MISRIIK228R (Rattus norvegicus, UniProt Q62893, K228R).
T2 construct: expressed in transfected cells; host or cells: COS7
T2 sequence (Q62893 18-557 K228R): T1 sequence (Q62893 18-557) with K211R
Put plainly: BRE-luciferase reporter assay in COS7 cells with kinase-deficient receptor MISRIIK228R. The text has this:
Results shown represent the mean values from four independent experiments performed in triplicates (Error bars represent standard error of the mean, *, P<0.05).

The mark [5] stands for this setting: 5 uM SP600125 with 0.5 ug/ml MIS.

Where a chain is given by its changes, count along the chain named.

As usually defined, the inhibition is the drop in the measured response relative to a control, in per cent. A low value points to a weak effect.

`O=C1c2ccccc2-c2n[nH]c3cccc1c23` [SP600125, anthra[1,9-cd]pyrazol-6(2H)-one]: 2 µM produced 50% inhibition in experiment [1]. In experiment [2], the apoptosis result is “did not result in apoptosis”. For the same molecule, the “additional induction over MIS alone” value in experiment [3] (setting [5]) is “six-fold”. For the same molecule, the “BRE-luciferase induction, MIS plus SP600125” value in experiment [3] (setting [5]) is “approximately 16 fold”; in experiment [3] (10 uM SP600125 with 0.5 ug/ml MIS) it was 22 fold; in experiment [3] (25 uM SP600125 with 0.5 ug/ml MIS), 25 fold. Also, the “time course of luciferase activity, cotreatment over each treatment alone” value in experiment [3] (10 uM SP600125 and 0.5 ug/ml MIS, after 6 h through 48 h) is given as “maintain their synergistic effect”. Also, in experiment [3] (combined compared with either alone, COS7), the “interaction of MIS and SP600125 on activation of BRE-luciferase (two-way ANOVA)” value was “synergistic effect”. Also, the “activation of BRE-luciferase with kinase-deficient receptor” value in experiment [4] (K228R receptor overexpressed, COS7, 24 hrs, agent alone) was “neither MIS nor SP600125 activates BRE-luciferase”. In addition, the “further increase of BRE-luciferase activity by MIS in combination with SP600125, with K228R” value in experiment [4] (MIS plus SP600125, K228R receptor) is given as “completely abolished”.

These data come from US9260759B2, “Pyrazoloanthrone and derivatives thereof for the treatment of cancers expressing MISRII” (The General Hospital Corporation, priority 2007, dated 2016).
